According to patent US20060100245A1, “Substituted biphenyl-4-carboxylic acid arylamide analogues” (Neurogen Corporation, priority 2002, published 2006):
pKi: −log10 of the molar value.

These compounds were tested against T1, human capsaicin receptor (VR1) (Homo sapiens, UniProt Q8NER1) (assay: Capsaicin receptor binding assay ([3H]RTX competition)). Settings: not given.
T1 construct: transfected with the pBK-CMV expression construct encoding the full length human capsaicin receptor; expressed in transfected cells
T1 sequence (Q8NER1 whole entry): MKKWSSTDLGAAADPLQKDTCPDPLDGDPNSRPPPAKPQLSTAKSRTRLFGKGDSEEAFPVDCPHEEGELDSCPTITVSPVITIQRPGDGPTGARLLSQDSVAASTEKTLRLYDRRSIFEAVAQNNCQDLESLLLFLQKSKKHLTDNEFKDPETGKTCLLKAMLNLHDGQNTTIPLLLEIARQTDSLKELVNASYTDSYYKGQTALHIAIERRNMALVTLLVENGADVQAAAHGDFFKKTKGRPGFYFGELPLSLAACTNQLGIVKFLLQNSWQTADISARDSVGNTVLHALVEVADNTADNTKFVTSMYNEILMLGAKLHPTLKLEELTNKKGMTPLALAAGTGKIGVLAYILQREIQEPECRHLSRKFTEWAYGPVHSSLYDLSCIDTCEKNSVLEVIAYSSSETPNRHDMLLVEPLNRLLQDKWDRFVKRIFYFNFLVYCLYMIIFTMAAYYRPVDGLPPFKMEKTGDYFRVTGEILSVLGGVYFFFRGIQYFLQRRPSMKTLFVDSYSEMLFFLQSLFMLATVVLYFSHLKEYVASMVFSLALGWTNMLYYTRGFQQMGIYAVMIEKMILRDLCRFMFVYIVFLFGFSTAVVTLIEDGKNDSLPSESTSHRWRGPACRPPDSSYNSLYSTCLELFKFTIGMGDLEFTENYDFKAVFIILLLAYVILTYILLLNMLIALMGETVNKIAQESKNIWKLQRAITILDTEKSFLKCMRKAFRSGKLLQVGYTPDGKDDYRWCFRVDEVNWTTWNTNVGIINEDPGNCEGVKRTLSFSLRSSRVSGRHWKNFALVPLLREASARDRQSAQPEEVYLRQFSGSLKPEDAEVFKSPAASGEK
How it was run: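 Membranes from HEK293 cells stably expressing full-length human VR1; competition against 60 pM [3H]RTX, 60 min at 37 °C in HEPES/sucrose buffer pH 7.4 with 0.25 mg/ml BSA. Non-specific binding defined with 1 μM unlabelled RTX; alpha1-acid glycoprotein added after termination on ice.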

Row | Structure (SMILES) | pKi
1 | CCC1(c2ccc(NC(=O)c3ccc(-c4ncccc4F)cc3)cc2)CCC(=O)NC1=O (stereo not drawn) [Compound 458, N-[4-(3-Ethyl-2,6-dioxo-piperidin-3-yl)-phenyl]-4-(3-fluoro-pyridin-2-yl)-benzamide] | > 6.00

Same assay, conditions: read-out: Ki

Row | Structure (SMILES) | pKi
2 | CC(C)(C)c1ccc(NC(=O)c2ccc(-c3ccncc3[N+](=O)[O-])cc2)cc1 [Compound 416, N-(4-tert-Butyl-phenyl)-4-(3-nitro-pyridin-4-yl)-benzamide] | > 6.00
3 | CC(C)(C)c1ccc(NC(=O)c2ccc(-c3ncccc3NS(=O)(=O)Cc3ccccc3)cc2)cc1 [Compound 417, N-(4-tert-Butyl-phenyl)-4-(3-phenylinethanesulfonylamino-pyridin-2-yl)-benzamide] | > 6.00
4 | CCCOc1cccnc1-c1ccc(C(=O)Nc2ccc(C(C)(C)C)cc2)cc1 [Compound 418, N-(4-tert-Butyl-phenyl)-4-(3-propoxy-pyridin-2-yl)-benzamide] | > 6.00
5 | CCCNc1cccnc1-c1ccc(C(=O)Nc2ccc(C(C)(C)C)cc2)cc1 [Compound 419, N-(4-tert-Butyl-phenyl)-4-(3-propylamino-pyridin-2-yl)-benzamide] | > 6.00
6 | CC(C)(C)c1ccc(NC(=O)c2ccc(-c3ncccc3CN3CCCC3)cc2)cc1 [Compound 420, N-(4-tert-Butyl-phenyl)-4-(3-pyrrolidin-1-ylmethyl-pyridin-2-yl)-benzamide] | > 6.00
7 | CC(C)(C)c1ccc(NC(=O)c2ccc(-c3ncccc3C(F)(F)F)cc2)cc1 [Compound 421, N-(4-tert-Butyl-phenyl)-4-(3-trifluoromethyl-pyridin-2-yl)-benzamide] | > 6.00
8 | CC(C)(C)c1ccc(NC(=O)c2ccc(-c3cc(C(F)(F)F)ccn3)cc2)cc1 [Compound 422, N-(4-tert-Butyl-phenyl)-4-(4-trifluoromethyl-pyridin-2-yl)-benzamide] | > 6.00
9 | CC(C)(C)c1ccc(NC(=O)c2ccc(-c3ncccc3NS(=O)(=O)c3ccc(F)cc3)cc2)cc1 [Compound 423, N-(4-tert-Butyl-phenyl)-4-[3-(4-fluoro-benzenesulfonylamino)-pyridin-2-yl]-benzamide] | > 6.00
10 | Cc1nnc(-c2cccnc2-c2ccc(C(=O)Nc3ccc(C(C)(C)C)cc3)cc2)o1 [Compound 424, N-(4-tert-Butyl-phenyl)-4-[3-(5-methyl-[1,3,4]oxadiazol-2-yl)-pyridin-2-yl]-benzamide] | > 6.00
11 | CN(c1cccnc1-c1ccc(C(=O)Nc2ccc(C(C)(C)C)cc2)cc1)S(C)(=O)=O [Compound 425, N-(4-tert-Butyl-phenyl)-4-[3-(methanesulfonyl-methyl-amino)-pyridin-2-yl]-benzamide] | > 6.00
12 | CC(C)(C)c1ccc(NC(=O)c2ccc(-c3ncccc3N(S(C)(=O)=O)S(C)(=O)=O)cc2)cc1 [Compound 426, N-(4-tert-Butyl-phenyl)-4-[3-(N,N-dimethanesulfonyl)amino-pyridin-2-yl]-benzamide] | > 6.00
13 | CC(C)(C)c1ccc(NC(=O)c2ccc(-c3ccncc3N(S(C)(=O)=O)S(C)(=O)=O)cc2)cc1 [Compound 427, N-(4-tert-Butyl-phenyl)-4-[3-(N,N-dimethanesulfonyl)amino-pyridin-4-yl]-benzamide] | > 6.00
14 | Cc1ccc(S(=O)(=O)Nc2cccnc2-c2ccc(C(=O)Nc3ccc(C(C)(C)C)cc3)cc2)cc1 [Compound 428, N-(4-tert-Butyl-phenyl)-4-[3-(toluene-4-sulfonylamino)-pyridin-2-yl]-benzamide] | > 6.00
15 | CC(C)(C)c1ccc(NC(=O)c2ccc(C3CCCCN3)cc2)cc1 (stereo not drawn) [Compound 429, N-(4-tert-Butyl-phenyl)-4-piperidin-2-yl-benzamide] | > 6.00
16 | CC(C)(C)c1ccc(NC(=O)c2ccc(-c3ccccn3)cc2)cc1 [Compound 430, N-(4-tert-Butyl-phenyl)-4-pyridin-2-yl-benzamide] | > 6.00
17 | CC(C)(C)c1ccc(NC(=O)c2ccc(-c3cccnc3)cc2)cc1 [Compound 431, N-(4-tert-Butyl-phenyl)-4-pyridin-3-yl-benzamide] | > 6.00
18 | CC(C)(C)c1ccc(NC(=O)c2ccc(-c3ccncc3)cc2)cc1 [Compound 432, N-(4-tert-Butyl-phenyl)-4-pyridin-4-yl-benzamide] | > 6.00
19 | CC(C)(C)c1ccc(NC(=O)c2ccc(-c3ncccn3)cc2)cc1 [Compound 433, N-(4-tert-Butyl-phenyl)-4-pyrimidin-2-yl-benzamide] | > 6.00
20 | CC(C)(C)c1ccc(NC(=O)c2ccc(-c3cnc4ccccc4c3)cc2)cc1 [Compound 434, N-(4-tert-Butyl-phenyl)-4-quinolin-3-yl-benzamide] | > 6.00
21 | CC(C)(C)c1ccc(NC(=O)c2cnc(-c3ccccc3Cl)c(Cl)c2)cc1 [Compound 435, N-(4-tert-Butyl-phenyl)-5-chloro-6-(2-chloro-phenyl)-nicotinamide] | > 6.00
22 | CC(C)(C)c1ccc(NC(=O)c2cnc(-c3ccccc3)c(Cl)c2)cc1 [Compound 436, N-(4-tert-Butyl-phenyl)-5-chloro-6-phenyl-nicotinamide] | > 6.00
23 | CC(C)(C)c1ccc(NC(=O)c2ccc(-c3ccc(F)cc3F)nc2)cc1 [Compound 437, N-(4-tert-Butyl-phenyl)-6-(2,4-difluoro-phenyl)-nicotinamide] | > 6.00

Row | Structure (SMILES) | pKi
24 | CC(C)(C)c1ccc(NC(=O)c2ccc(-c3c(F)cccc3F)nc2)cc1 [Compound 438, N-(4-tert-Butyl-phenyl)-6-(2,6-difluoro-phenyl)-nicotinamide] | > 6.00
25 | Cc1cccc(C)c1-c1ccc(C(=O)Nc2ccc(C(C)(C)C)cc2)cn1 [Compound 439, N-(4-tert-Butyl-phenyl)-6-(2,6-dimethyl-phenyl)-nicotinamide] | > 6.00
26 | CCOc1ccc(-c2ccc(C(=O)Nc3ccc(C(C)(C)C)cc3)cn2)c(Cl)c1 [Compound 440, N-(4-tert-Butyl-phenyl)-6-(2-chloro-4-ethoxy-phenyl)-nicotinamide] | > 6.00
27 | CC(C)(C)c1ccc(NC(=O)c2cnc(-c3ccccc3Cl)cc2O)cc1 [Compound 441, N-(4-tert-Butyl-phenyl)-6-(2-chloro-phenyl)-4-hydroxy-nicotinamide] | > 6.00
28 | CC(C)(C)c1ccc(NC(=O)c2ccc(-c3ccccc3Cl)nc2)cc1 [Compound 442, N-(4-tert-Butyl-phenyl)-6-(2-chloro-phenyl)-nicotinamide] | > 6.00
29 | CC(C)(C)c1ccc(NC(=O)c2ccc(-c3ccccc3F)nc2)cc1 [Compound 443, N-(4-tert-Butyl-phenyl)-6-(2-fluoro-phenyl)-nicotinamide] | > 6.00
30 | CC(C)(C)c1ccc(NC(=O)c2ccc(-c3ccccc3CO)nc2)cc1 [Compound 444, N-(4-tert-Butyl-phenyl)-6-(2-hydroxymethyl-phenyl)-nicotinamide] | > 6.00
31 | CC(C)(C)c1ccc(NC(=O)c2ccc(-c3ccccc3NS(C)(=O)=O)nc2)cc1 [Compound 445, N-(4-tert-Butyl-phenyl)-6-(2-methanesulfonylamino-phenyl)-nicotinamide] | > 6.00
32 | CC(C)(C)c1ccc(NC(=O)c2ccc(-c3ccccc3[N+](=O)[O-])nc2)cc1 [Compound 446, N-(4-tert-Butyl-phenyl)-6-(2-nitro-phenyl)-nicotinamide] | > 6.00
33 | CC(C)(C)c1ccc(NC(=O)c2ccc(-c3ccccc3C(F)(F)F)nc2)cc1 [Compound 447, N-(4-tert-Butyl-phenyl)-6-(2-trifluoromethyl-phenyl)-nicotinamide] | > 6.00
34 | CC(C)(C)c1ccc(NC(=O)c2ccc(-c3cccc(F)c3)nc2)cc1 [Compound 448, N-(4-tert-Butyl-phenyl)-6-(3-fluoro-phenyl)-nicotinamide] | > 6.00
35 | COc1cccc(-c2ccc(C(=O)Nc3ccc(C(C)(C)C)cc3)cn2)c1 [Compound 449, N-(4-tert-Butyl-phenyl)-6-(3-methoxy-phenyl)-nicotinamide] | > 6.00
36 | CC(C)(C)c1ccc(NC(=O)c2ccc(-c3ccc(O)cc3)nc2)cc1 [Compound 450, N-(4-tert-Butyl-phenyl)-6-(4-hydroxy-phenyl)-nicotinamide] | > 6.00
37 | CC(C)(C)c1ccc(NC(=O)c2ccc(-c3ccccc3N(S(C)(=O)=O)S(C)(=O)=O)nc2)cc1 [Compound 451, N-(4-tert-Butyl-phenyl)-6-[2-(N,N-dimethanesulfonyl)amino-phenyl]-nicotinamide] | > 6.00
38 | Cc1cccc(-c2ccc(C(=O)Nc3ccc(C(C)(C)C)cc3)cn2)c1 [Compound 452, N-(4-tert-Butyl-phenyl)-6-m-tolyl-nicotinamide] | > 6.00
39 | Cc1ccccc1-c1ccc(C(=O)Nc2ccc(C(C)(C)C)cc2)cn1 [Compound 453, N-(4-tert-Butyl-phenyl)-6-o-tolyl-nicotinamide] | > 6.00
40 | CC(C)(C)c1ccc(NC(=O)c2ccc(-c3ccccc3)nc2)cc1 [Compound 454, N-(4-tert-Butyl-phenyl)-6-phenyl-nicotinamide] | > 6.00
41 | CS(=O)(=O)N(c1cccnc1-c1ccc(C(=O)Nc2ccc(C(F)(F)F)cc2)cc1)S(C)(=O)=O [Compound 456, N-(4-Trifluoromethyl-phenyl)-4-[3-(N,N-dimethanesulfonyl)amino-pyridin-2-yl]-benzamide] | > 6.00
42 | CS(=O)(=O)N(c1cccnc1-c1ccc(C(=O)Nc2ccc(C(F)(F)F)cn2)cc1)S(C)(=O)=O [Compound 457, N-(5-Trifluoromethyl-pyridin-2-yl)-4-[3-(N,N-dimethanesulfonyl)amino-pyndin-2-yl]-benzamide] | > 6.00
43 | Cc1ccccc1-c1ccc(C(=O)Nc2ccc(Oc3ccc(Cl)cc3)cc2)cn1 [Compound 459, N-[4-(4-Chloro-phenoxy)-phenyl]-6-o-tolyl-nicotinamide] | > 6.00
44 | CC(C)c1cccc(-c2ccc(C(=O)Nc3ccc4c(c3)CCC4)cn2)c1 [Compound 462, N-Indan-5-yl-6-(3-isopropyl-phenyl)-nicotinainide] | > 6.00
45 | COc1cccc(-c2ccc(C(=O)Nc3ccc4c(c3)CCC4)cn2)c1 [Compound 463, N-Indan-5-yl-6-(3-methoxy-phenyl)-nicotinamide] | > 6.00
